Data on twelve molecules can be found in PMC9635925, “Biological screening of a unique drug library targeting MRGPRX2” (Frontiers in Immunology, 2022).

Experiment [1] has as its target T1, MRGPRX2-MUT (MRGPRX2 N62S mutation) (Homo sapiens, UniProt Q96LB1, N62S).
T1 construct: expressed in transfected cells
T1 sequence (Q96LB1 1-330 N62S): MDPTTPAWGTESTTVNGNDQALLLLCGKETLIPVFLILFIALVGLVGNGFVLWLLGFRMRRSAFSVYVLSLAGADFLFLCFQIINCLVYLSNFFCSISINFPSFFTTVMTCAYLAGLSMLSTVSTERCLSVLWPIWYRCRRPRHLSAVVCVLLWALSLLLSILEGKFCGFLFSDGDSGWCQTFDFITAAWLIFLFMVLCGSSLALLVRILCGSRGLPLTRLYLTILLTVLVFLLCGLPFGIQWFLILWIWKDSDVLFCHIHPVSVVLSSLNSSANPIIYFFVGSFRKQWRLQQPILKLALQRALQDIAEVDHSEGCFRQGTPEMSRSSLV
Nature of the experiment: Primary HTS, Ca2+ mobilization (fluorescence ratio, B-score) in HEK293-Gα15 cells stably expressing the MRGPRX2 N62S mutation. Format: cell-based. The settings on record: for B-scores (MUT): 10 μM compound, MRGPRX2-MUT (N62S) cells; for Change of B-scores (%): 10 μM. A general note: Calcium flux is commonly read through the fluorescence of an indicator in the cells.

The target in experiment [2] is T2, MRGPRX2-WT (wild-type MRGPRX2 receptor) (Homo sapiens, UniProt Q96LB1).
T2 construct: expressed in transfected cells
T2 sequence (Q96LB1 1-330): T1 sequence (Q96LB1 1-330 N62S) with S62N
Nature of the experiment: Primary HTS, Ca2+ mobilization (fluorescence ratio, B-score) in HEK293-Gα15 cells stably expressing wild-type MRGPRX2. Conditions: 10 μM compound. Format: cell-based.

The mark [3] stands for this setting: Supplementary Table 2, listed as Isoprenaline.
Where [4] appears, read: MRGPRX2-MUT in comparison to MRGPRX2-WT cells, Supplementary Table 1.
The mark [5] stands for this setting: MRGPRX2-MUT in comparison to MRGPRX2-WT cells, Table 1.
[6] abbreviates: MRGPRX2-MUT versus MRGPRX2-WT cells, Supplementary Table 2.

Numbering of substitutions follows the chain as printed. Where a name gives a salt, the structure may show the parent alone.

As to `CC(C)NCC(O)c1ccc(O)c(O)c1` (stereo not shown) [Isoproterenol], the “B-scores (MUT)” value in experiment [1] (Supplementary Table 1) and in experiment [1] (setting [3]) was 6.75 each time. Further, the “Change of B-scores (%)” value in experiment [1] (setting [4]) is listed as -64.69%; in experiment [1] (MRGPRX2-MUT versus MRGPRX2-WT cells, Supplementary Table 2, listed as Isoprenaline), -64.69%. Besides, the “B-scores (WT)” value in experiment [2] (Supplementary Table 1) and in experiment [2] (setting [3]) was 19.12 throughout.

For the molecule `CN1CCC(=C2c3ccccc3CC(=O)c3sccc32)CC1` [Ketotifen Fumarate], the “B-scores (MUT)” value in experiment [1] (Supplementary Table 1) and in experiment [1] (Table 1) was 0.81 throughout. The “Change of B-scores (%)” value in experiment [1] (setting [4]) and in experiment [1] (setting [5]) was -96.52% throughout. Further, the “B-scores (WT)” value in experiment [2] (Supplementary Table 1) and in experiment [2] (Table 1) was 23.14 throughout.

Regarding `CN1CCC(=C2c3ccccc3CC(=O)c3sccc32)CC1` [Ketotifen], the “B-scores (MUT)” value in experiment [1] (Supplementary Table 1) and in experiment [1] (Table 1) was 1.38 throughout. In addition, the “Change of B-scores (%)” value in experiment [1] (setting [4]) and in experiment [1] (setting [5]) was -93.13% in each case. Also, the “B-scores (WT)” value in experiment [2] (Supplementary Table 1) and in experiment [2] (Table 1) was 20.12 each time.

Regarding `CC(C)(C)NC[C@H](O)c1ccc(O)c(CO)c1` [Levalbuterol], the “B-scores (MUT)” value in experiment [1] (Supplementary Table 2) was 1.63. Also, in experiment [1] (setting [6]), the “Change of B-scores (%)” value is given as -86.62%. Moreover, in experiment [2] (Supplementary Table 2), the “B-scores (WT)” value is 12.18.

For the molecule `C[C@H]1COc2c(N3CCN(C)CC3)c(F)cc3c(=O)c(C(=O)O)cn1c23` [Levofloxacin], the “B-scores (MUT)” value in experiment [1] (Supplementary Table 1) was 0.74; in experiment [1] (Table 1) it was -0.74. Also, the “Change of B-scores (%)” value in experiment [1] (setting [4]) and in experiment [1] (setting [5]) was -101.85% in each case. Also, the “B-scores (WT)” value in experiment [2] (Supplementary Table 1) and in experiment [2] (Table 1) was 39.73 throughout.

Take `CCOC(=O)N1CCC(=C2c3ccc(Cl)cc3CCc3cccnc32)CC1` [Loratadine]: the “B-scores (MUT)” value in experiment [1] (Table 1) was -3.30. For the same molecule, the “Change of B-scores (%)” value in experiment [1] (setting [4]) and in experiment [1] (setting [5]) was -115.04% throughout. Besides, the “B-scores (WT)” value in experiment [2] (Supplementary Table 1) and in experiment [2] (Table 1) was 21.95 each time.

On to `Cc1ccc(NC(=O)c2ccc(CN3CCN(C)CC3)cc2)cc1Nc1nc(-c2cccnc2)cs1` [Masitinib], for which the “B-scores (MUT)” value in experiment [1] (Supplementary Table 1), in experiment [1] (Supplementary Table 2) and in experiment [1] (Table 1) was 3.82 throughout. Further, the “Change of B-scores (%)” value was -86.20% in experiment [1] (setting [4]), -86.20% in experiment [1] (setting [5]) and -86.2% in experiment [1] (setting [6]). The “B-scores (WT)” value in experiment [2] (Supplementary Table 1), in experiment [2] (Supplementary Table 2) and in experiment [2] (Table 1) was 27.71 each time.

As for `CN1CCc2c(c3ccccc3n2Cc2ccccc2)C1.CN1CCc2c(c3ccccc3n2Cc2ccccc2)C1.O=S(=O)(O)c1cccc2c(S(=O)(=O)O)cccc12` [Mebhydrolin Naphthalenesulfonate], the “B-scores (MUT)” value in experiment [1] (Supplementary Table 1) and in experiment [1] (Table 1) was 1.93 in each case. The “Change of B-scores (%)” value in experiment [1] (setting [4]) and in experiment [1] (setting [5]) was -92.39% throughout. In addition, the “B-scores (WT)” value in experiment [2] (Supplementary Table 1) and in experiment [2] (Table 1) was 25.34 each time.

`CC12CC3CC(C)(C1)CC(N)(C3)C2` [Memantine Hydrochloride]: the “Change of B-scores (%)” value in experiment [1] (setting [4]) was -99.82%. Moreover, in experiment [2] (Supplementary Table 1), the “B-scores (WT)” value was determined as 26.34.

Consider `CC(C)NCC(O)c1cc(O)cc(O)c1` (stereo not shown) [Metaproterenol], for which the “B-scores (MUT)” value in experiment [1] (Supplementary Table 1) and in experiment [1] (Supplementary Table 2) was 2.41 throughout. For the same molecule, the “Change of B-scores (%)” value in experiment [1] (setting [4]) and in experiment [1] (setting [6]) was -88.28% in each case. In addition, the “B-scores (WT)” value in experiment [2] (Supplementary Table 1) and in experiment [2] (Supplementary Table 2) was 20.54 in each case.

In the case of `CC(=O)OC(C)C[N+](C)(C)C` (stereo not shown) [Methacholine Chloride], the “B-scores (MUT)” value in experiment [1] (Supplementary Table 1) came out at 37.31. For the same molecule, the “Change of B-scores (%)” value in experiment [1] (setting [4]) stood at 43.29%. The “B-scores (WT)” value in experiment [2] (Supplementary Table 1) is reported as 26.04.

With `CC(=O)Oc1cc(C(C)C)c(OCCN(C)C)cc1C` [Moxisylyte Hydrochloride], the “B-scores (MUT)” value in experiment [1] (Supplementary Table 1) is on record as 1.32. Besides, the “Change of B-scores (%)” value in experiment [1] (setting [4]) is recorded as -94.42%. The “B-scores (WT)” value in experiment [2] (Supplementary Table 1) was 23.69.
